These are literature values, as cited in patent US20120315337A1, “MULTIPARTICULATE 5-HTP COMPOSITIONS AND RELATED METHODS” (priority 2011, published 2012).

SMILES strings stand for the structures.

For this series the following is noted: comparison of antidepressant drug fluoxamine with 5-HTP; background statement.

In the case of `N[C@@H](Cc1c[nH]c2ccc(O)cc12)C(=O)O` [5-HTP, L-5-hydroxytryptophan], the “efficacy in clinical trial” value was “equally effective”.

Take `COCCCC/C(=N\OCCN)c1ccc(C(F)(F)F)cc1` [fluoxamine]: the “efficacy in clinical trial” value is on record as “equally effective”.
